Data set [1] is described as follows: Metabolic stability in human liver microsomes. The format is in vitro ADME. The settings on record: human liver microsomes 0.5 mg protein/mL, test compound 1 μM, 37° C.; read-out: T1/2 in HLM. As to the method:
(§1) The metabolic stability of the compounds disclosed herein was determined by measuring half-life (T1/2) of the compounds in the presence of mouse liver microsomes (MLM) or human liver microsomes (BILM).
(§2) Intermediate solution: 5 μL of compound and control stock solution (10 mM in dimethyl sulfoxide (DMSO)) were diluted with 495 μL of acetonitrile (ACN) (intermediate solution concentration: 100 μM, 99% ACN).
(§3) Working solution: 50 μL of compound and control intermediate solution (100 μM) were diluted with 450 μL of 100 mM potassium phosphate buffer (working solution concentration: 10 μM, 9.9% ACN).
(§4) Controls used in this assay: Testosterone, Diclofenac, and Propafenone.
(§5) Preparation Procedure: The appropriate amount of NADPH powder was weighed and diluted into a 10 mM MgCl2 solution (working solution concentration: 10 unit/mL; final concentration in reaction system: 1 unit/mL).
(§6) The appropriate concentrations of microsome working solutions were prepared in 100 mM potassium phosphate buffer.
(§7) Cold (4° C.) acetonitrile (CAN) containing 200 ng/mL tolbutamide and 200 ng/mL labetalol as internal standards (IS) was used as the stop solution.
(§8) Using an Apricot automation workstation, 10 μL/well of compound working solution were added to all 96-well reaction plates except the blank (T0, T5, T10, T20, T30, T60, and NCF60).
(§9) An Apricot automation workstation was used to add 80 μL/well of microsome solution to all reaction plates (Blank, T0, T5, T10, T20, T30, T60, and NCF60).
(§10) All reaction plates containing mixtures of compound and microsomes were pre-incubated at 37° C. for 10 minutes.
(§11) An Apricot automation workstation was used to add 10 μL/well of 100 mM potassium phosphate buffer to reaction plate NCF60.
(§12) Reaction plate NCF60 was incubated at 37° C. for 60 minutes.
(§13) After pre-incubation, an Apricot automation workstation was used to add 10 μL/well of NADPH regenerating system to every reaction plate except NCF60 (Blank, T0, T5, T10, T20, T30, and T60) to start the reaction. Final concentration of each component in incubation medium: Microsome (0.5 mg protein/mL); Test Compound (1 μM); Control Compound (1 μM); Acetonitrile (0.99%); DMSO (0.01%).
(§14) The reaction plates were incubated at 37° C. for 0 minute (T0, stop solution was added prior to microsome and NADPH solutions), 5 minutes (T5), 10 minutes (T10), 20 minutes (T20), 30 minutes (T30), 60 minutes (T60).
(§15) An Apricot automation workstation was used to add 300 μL/well of stop solution to each reaction plate at its appropriate end time point to terminate the reaction.
(§16) Each plate was sealed and shaken for 10 minutes.
(§17) After shaking, each plate was centrifuged at 4000 rpm and 4° C. for 20 minutes.
(§18) During centrifugation, an Apricot automation workstation was used to add 300 µL/well of HPLC grade water to eight new 96-well plates.
(§19) After centrifugation, an Apricot automation workstation was used to transfer 100 μL of supernatant from each reaction plate to its corresponding bioanaylsis plate.
(§20) Each bioanalysis plate was sealed and shaken for 10 minutes prior to LC-MS/MS analysis.
(§21) The equation of first order kinetics was used to calculate T1/2 and CLint(mic) (μL/min/mg).
A general note: Liver microsomes are vesicles of endoplasmic reticulum, rich in cytochrome P450 enzymes.

The nature of data set [2]: Metabolic stability in mouse liver microsomes. Format: in vitro ADME. The following applies: CD-1 mouse liver microsomes 0.5 mg protein/mL, test compound 1 μM, 37° C.; read-out: T1/2 in MLM. As to the method: as §1, §2, §3, §4, §5, §6, §7, §8, §9, §10, §11, §12, §13, §14, §15, §16, §17, §18, §19, §20, §21
The subject of a further data set is T24/83 cells. The data set is described as follows: T24/83 cell proliferation assay (CellTiter-Glo). Format: cell-based. The following applies: Homo sapiens, 96 h, 4 days. The text has this:
(§22) T24/83 cell line was purchased from the European Collection of Authenticated Cell Cultures (Salisbury, UK). Recombinant human farnesyl transferase (FTase) and geranylgeranyl transferase type-1 (GGTase) were obtained from Crelux (Martinsried, Germany). Dansyl labelled GCVLS peptide was purchased from Bachem (Torrance, CA), and Dansyl labelled GCVLL peptide was purchased from Bio Synthesis (Lewisville, TX). Farnesyl Pyrophosphate (FPP) and Geranylgeranyl pyrophosphate (GGPP) were purchased from Cayman (Ann Arbor, MI).
Mutant oncogenic HRAS was originally identified in a human bladder carcinoma cell line called T24. T24/83 is a subline of T24 established more recently that has more favorable growth characteristics for in vitro assays. Thus, T24/83 is a well-characterized mutant HRAS-dependent cell line that is an ideal model for quantifying the HRAS-dependent antitumor activity of farnesyltransferase inhibitors.
T24/83 cells were inoculated into 384 well plates at 100 cells/well, and grown in the presence of inhibitor, 0.7% DMSO as a negative control, or 100 μM tipifarnib as a positive control, at 37° C. for 4 days. Cell viability was assessed using the CellTiter-Glo Kit (CTG) (Promega; Madison, WI). Luminescence was recorded using EnVision microplate reader (PerkinElmer; Waltham, MA). In this assay, tipifarmib was used as a positive control. All the assay plates passed the QC criteria (S/B, Z-factor).
(In general: Cellular ATP, detected with luciferase, serves as a proxy for viable cell number.)

Data set [3] concerns the target T1, Recombinant human farnesyl transferase (FTase) (Homo sapiens, UniProt P49356).
T1 construct: purchased Crelux (Martinsried, Germany)
Put plainly: FTase fluorescence assay (farnesylation of dansyl-GCVLS peptide). Format: biochemical. The following applies: recombinant human FTase 2.5 nM, Dansyl-GCVLS 85 nM, FPP 30 nM, 30° C., 50 minutes.

Data set [4] has as its target T2, geranylgeranyl transferase type-1 (GGTase) (Homo sapiens, UniProt P53609).
T2 construct: purchased Crelux (Martinsried, Germany)
Put plainly: GGTase fluorescence assay (dansyl-GCVLL peptide, GGPP). The following applies: GGTase 25 nM, Dansyl-GCVLL 10 μM, GGPP 10 μM, 30° C., 120 minutes. Format: biochemical.
Excerpt: as §22
Geranylgeranyl transferase (GGTase) is a closely related enzyme to farnesyl transferase (FTase). The two enzymes share a common regulatory chain but have distinct individual enzymatic domains. GGTase catalyses the addition of an alternative prenylated side chain to some of the same proteins that may also be farnesylated. Thus, selective inhibitory activity against FTase relative to GGTase is a critical characteristic for FTase inhibitors.
The IC50 value of the compounds disclosed herein as inhibitors of Ftase and/or GGTase, was determined by measuring the concentration (provided in nM) necessary to achieve inhibition of enzyme activity by 50% (IC50). […] Compounds having a low IC50 value against FTase, for example an IC50 (FTase)<100 nM, such as an IC50 (FTase)<10 nM, are preferred. Compounds having a low IC50 value against FTase and a high IC50 value against GGTase, for example an IC50 (FTase)<100 nM, such as an IC50 (FTase)<10 nM, and an IC50 (GGTase)>100 nM, are potent and selective inhibitors of FTase, and are particularly preferred.
The inhibition activities of the compounds disclosed herein against Ftase and GGTase were measured in the respective fluorescence assays as follows:
For the GGTase assay, GGTase (25 nM), Dansyl labelled GCVLL peptide (10 μM), GGPP (10 μM) and inhibitor were mixed in assay buffer (50 mM Tris, pH 7.5, 10 mM magnesium chloride, 10 μM zinc chloride, 0.08% CHAPS, 5 mM dithiothreitol) and incubated in a total volume of 20 μL at 30° C. for 120 minutes.
For both the FTase assay and GGTase assay, fluorescence intensity was detected (excitation at 340 nm and emission at 486 nm) using EnVision (PerkinElmer; Waltham, MA), IC50 determinations were performed using a sigmoidal dose-response model with Xlfit software (IDBS, Inc.; Boston, MA), and tipifarnib was used as a positive control. All the assay plates for each assay passed the QC criteria (S/B, Z factor).

The source of these data is patent US12018011B2, “Macrocyclic compounds and compositions, and methods of preparing and using the same” (Kura Oncology, Inc., priority 2021, dated 2024).

For `[2H]C([2H])([2H])n1c(=O)cc2c3cc(ccc31)[C@@](N)(c1cncn1C)c1ccc(Cl)c(c1)COc1cccc-2c1` [(S)-47, (S)-3-amino-4^4-chloro-2^1-(methyl-d3)-3-(1-methyl-1H-imidazol-5-yl)-2^1,2^2-dihydro-6-oxa-2(4,6)-quinolina-1,4(1,3)-dibenzenacyclohexaphan-2^2-one], the values for the half-life at 1 μM in data set [1] and in data set [2] were greater than 100 min and 5 to 15 min, respectively. Moreover, the IC50 (in general, the concentration that inhibits the measured activity by half) with T24/83 cells was no more than 0.05 µM; in data set [3] it was no more than 0.01 µM; in data set [4], greater than 1 µM.
For `[2H]C([2H])([2H])n1c(=O)cc2c3cc(ccc31)[C@@](N)(c1nncn1C)c1ccc(Cl)c(c1)OCCc1cccc-2c1` [(S)-34, (S)-3-amino-4^4-chloro-2^1-(methyl-d3)-3-(4-methyl-4H-1,2,4-triazol-3-yl)-2^1,2^2-dihydro-5-oxa-2(4,6)-quinolina-1,4(1,3)-dibenzenacycloheptaphan-2^2-one], in that order: less than 30 min, 5 to 15 min, 0.05 to 0.5 µM, no more than 0.01 µM and greater than 1 µM.
On to `Cn1cncc1[C@@]1(N)c2ccc(C#N)c(c2)CCc2cccc(c2)-c2cc(C#N)nc3ccc1cc23` [(R)-9, (R)-3-amino-3-(1-methyl-1H-imidazol-5-yl)-2(4,6)-quinolina-1,4(1,3)-dibenzenacyclohexaphane-2^2 4^4-dicarbonitrile], for which the IC50 with T24/83 cells is no more than 0.05 µM; in data set [3] it was no more than 0.01 µM; in data set [4] it was 0.1 to 1 µM.
For the molecule `[2H]C([2H])([2H])n1c(=O)cc2c3cc(ccc31)[C@@](O)(c1cncn1C)c1ccc(C#N)c(c1)COc1cccc-2c1` [(S)-55, (S)-3-hydroxy-2^1-(methyl-d3)-3-(1-methyl-1H-imidazol-5-yl)-2^2-oxo-2^1,2^2-dihydro-6-oxa-2(4,6)-quinolina-1,4(1,3)-dibenzenacyclohexaphane-4^4-carbonitrile], the IC50 with T24/83 cells was no more than 0.05 µM; in data set [3], no more than 0.01 µM; in data set [4], greater than 1 µM.
Consider `[2H]C([2H])([2H])n1c(=O)cc2c3cc(ccc31)[C@@](N)(c1cncn1C)c1ccc(C#N)c(c1)COc1cccc-2c1` [(S)-56, (S)-3-amino-2^1-(methyl-d3)-3-(1-methyl-1H-imidazol-5-yl)-2^2-oxo-2^1,2^2-dihydro-6-oxa-2(4,6)-quinolina-1,4(1,3)-dibenzenacyclohexaphane-4^4-carbonitrile], for which the half-life at 1 μM is greater than 100 min in data set [1] and greater than 15 min in data set [2]. The IC50 in the data set on T24/83 cells was no more than 0.05 µM; in data set [3], no more than 0.01 µM; in data set [4] it was greater than 1 µM.
With `Cn1cncc1[C@@]1(N)c2ccc(Cl)c(c2)CCc2cccc(c2)-c2cc(=O)n(C)c3ccc1cc23` [(S)-4, (S)-3-amino-4^4-chloro-2^1-methyl-3-(1-methyl-1H-imidazol-5-yl)-2^1,2^2-dihydro-2(4,6)-quinolina-1,4(1,3)-dibenzenacyclohexaphan-2^2-one], the half-life at 1 μM in data set [1] is less than 30 min; in data set [2], less than 5 min. The IC50 in the data set on T24/83 cells was no more than 0.05 µM; in data set [3], no more than 0.01 µM; in data set [4] it was greater than 1 µM.
For the molecule `Cn1cncc1[C@@]1(N)c2ccc(Cl)c(c2)COc2cccc(c2)-c2cc(C#N)nc3ccc1cc23` [(S)-48, (S)-3-amino-4^4-chloro-3-(1-methyl-1H-imidazol-5-yl)-6-oxa-2(4,6)-quinolina-1,4(1,3)-dibenzenacyclohexaphane-2^2-carbonitrile], the IC50 in the data set with T24/83 cells is no more than 0.05 µM; in data set [3], no more than 0.01 µM; in data set [4] it was greater than 1 µM.
In the case of `Cn1cncc1[C@@]1(O)c2ccc(C#N)c(c2)CCc2cccc(c2)-c2cc(=O)n(C)c3ccc1cc23` [(R)-6, (R)-3-hydroxy-2^1-methyl-3-(1-methyl-1H-imidazol-5-yl)-2^2-oxo-2^1,2^2-dihydro-2(4,6)-quinolina-1,4(1,3)-dibenzenacyclohexaphane-4^4-carbonitrile], the values for the half-life at 1 μM in data set [1] and in data set [2] were less than 30 min and 5 to 15 min, respectively. The IC50 in the data set with T24/83 cells was no more than 0.05 µM; in data set [3], no more than 0.01 µM; in data set [4], greater than 1 µM.
`Cn1cncc1[C@@]1(N)c2ccc(C#N)c(c2)COc2cccc(c2)-c2cc(=O)n(C3CC3)c3ccc1cc23` [(S)-57, (S)-3-amino-2^1-cyclopropyl-3-(1-methyl-1H-imidazol-5-yl)-2^2-oxo-2^1,2^2-dihydro-6-oxa-2(4,6)-quinolina-1,4(1,3)-dibenzenacyclohexaphane-4^4-carbonitrile]: the IC50 is no more than 0.05 µM with T24/83 cells, no more than 0.01 µM in data set [3] and greater than 1 µM in data set [4].
As for `Cn1cncc1[C@@]1(N)c2ccc(C#N)c(c2)OCc2cccc(c2)-c2cc(C#N)nc3ccc1cc23` [(S)-21, (S)-3-amino-3-(1-methyl-1H-imidazol-5-yl)-5-oxa-2(4,6)-quinolina-1,4(1,3)-dibenzenacyclohexaphane-2^2 4^4-dicarbonitrile], the IC50 in the data set with T24/83 cells was no more than 0.05 µM; in data set [3] it was no more than 0.01 µM; in data set [4], 0.1 to 1 µM.
